# Source: a melting point compilation (Tetko et al.; mined from patent text by program, amines drawn as free bases though some values may be those of a salt)
row,melting point [°C],Compound
1,156 to 157,O=C(O)c1ncsc1S
2,139 to 143,O=C(O)C1=Cc2cc(SC(F)(F)F)ccc2OC1C(F)(F)F (stereo not given)
3,122 to 123,CCCC(=O)Oc1ccc2nc(S(N)(=O)=O)sc2c1
4,130,COC(=O)c1c2ccccc2nc2ccc(Cl)cc12
5,93 to 95,COC(=O)c1cscc1N=C=S
6,188 to 189,Nc1c(F)c(N2CCC(C(N)c3ccco3)C2)c(F)c2c1c(=O)c(C(=O)O)cn2C1CC1F (stereo not given)
7,170,Cc1ccc(-c2nc3ccccc3s2)nc1
8,143 to 145,CCC1CCCCN1C(=O)C=Cc1c(-c2cccc(NC(=O)OC)c2)nn2ccccc12 (stereo not given)
9,88 to 89,COc1ccc(C=O)cc1OC(=O)CCl
10,62,C#CCn1c(C)c(CO)sc1=O
11,219 to 220,NC(=O)c1cccc(-n2c(=O)n(Cc3cccnc3)c(=O)c3cccnc32)c1
12,86 to 87,CC(=O)c1ccc(CCCOc2c(C)cc(N3CN=C(C(F)(F)F)O3)cc2C)nn1
13,167 to 168,NC(=O)Nc1ccc(OC(F)C(F)(F)F)cc1 (stereo not given)
14,178 to 179,COC(=O)Nn1c(N)c(C#N)c(C)c1-c1ccccc1
15,163 to 164,O=C(O)CCC(=NO)c1ccc(-c2ccc(Br)cc2F)cc1
16,61 to 62,CCOC(=O)c1cnc(-c2cccs2)s1
17,57 to 59,OCc1c(C(F)(F)F)nn(-c2ccccc2)c1OC(F)F
18,153 to 154,N=C(Nc1ccccc1-c1ccccc1)N1CCOCC1
19,> 300,O=C(O)c1cc(=O)n(Cc2ccc(S(=O)(=O)O)cc2S(=O)(=O)O)[nH]1
20,157 to 158,N#Cc1cccnc1N1CCN(CC(=O)Nc2cccc(C(F)(F)F)c2)CC1

row,melting point [°C],Compound
1,> 300,CC(C)(C)C(=O)Nc1nc(O)c2c(C#C[Si](C)(C)C)c[nH]c2n1
2,72 to 74,O=C1NC(=O)C(Cc2ccc(OC3CCN(C(=O)OCc4ccccc4)CC3)cc2)S1 (stereo not given)
3,217 to 218,Cc1nc(N2CCN(Cc3ccccc3)C2=O)sc1C(N)=O
4,86 to 87,Cc1ccc(C(=O)NCCCSc2ccncc2)s1
5,156 to 157,CCCN(CCC)C(=O)Cn1c(=O)n(C)c2cnc(-c3ccccc3)nc21
6,153 to 155,CC(=O)SCC(C(=O)N1CC2(C[C@H]1C(=O)O)C(=O)CCC2=O)C(F)(F)F (stereo not given in full)
7,200 to 201,N#Cc1ccc(NC(=O)CCCC(=O)O)cc1
8,133 to 134,O=C(N[C@@H](Cc1ccccc1)C(=O)O)C(CS)C(F)(F)F (stereo not given in full)
9,123 to 124,Cc1nc(N2CCC(NCc3ccc(F)cc3)C2=O)sc1C(=O)NCc1ccc(F)cc1 (stereo not given)
10,102 to 103,O=C(CC1(O)C(=O)N(Cc2ccc(Cl)cc2)c2ccccc21)C1CC1 (stereo not given)
11,118 to 120,NC(CO)(CO)CCc1ccc(C(=O)CCCCCc2ccccc2)cc1
12,141 to 142,Cc1cccc(C(=O)O)c1OC(=O)C=Cc1ccccc1
13,233 to 234,O=C(O)Cc1c(C(=O)c2cc(Cl)ccn2)[nH]c2cc(Cl)ccc12
14,180,CCOc1cc(NCCO)c([N+](=O)[O-])cc1O
15,207 to 209,Cc1oc(-c2ccccc2)nc1CCOc1ccc(C[C@H](NC(=O)C=Cc2ccccc2)C(=O)O)cc1
16,152,CON=C(N)Nc1nccc(C)n1
17,246 to 248,O=C1NC(=O)C(=Cc2ccccc2)S1
18,188 to 189,COc1cc(OCc2ccccn2)c(C=CC(=O)c2ccc(S(N)(=O)=O)cc2)cc1-c1cccs1
19,211 to 213,Nc1ncnc2c1ncn2OCCSCP(=O)(O)O
20,147 to 150,O=C(Cn1nc(Cl)nc1Cl)N1CCC(c2nc(C3=NOC(c4c(F)cccc4F)C3)cs2)CC1 (stereo not given)

row,melting point [°C],Compound
1,98 to 99,CCOc1cc(Cl)ccc1Cn1nc(OC(C)C)cc1CCCOc1c(CC(=O)O)cccc1OC
2,70 to 71,c1cnc2c(c1)NCCCC2
3,300,O=C(O)c1ccc(-c2nc(-c3ccc(Cl)s3)co2)cc1
4,155 to 157,O=C(O)Cc1coc2cc(OCc3cccc(OCc4ccc(C(F)(F)F)cc4)c3)ccc12
5,122 to 123,CCCCCCCCCCCCOc1ccc(C(=O)O)o1
6,161,Cc1nc(C(F)(F)F)ccc1C(=O)Nc1ccccc1
7,165 to 166,CC(=O)Nc1nc(CSc2ccc([N+](=O)[O-])cc2)cs1
8,> 300,Cc1nc(=O)[nH]c2cc(N(C)C)ccc12
9,98 to 99,Cc1ccnc2c(Oc3ccccc3[N+](=O)[O-])cccc12
10,91,CCC(=O)N(Cc1cccc(-c2ccccc2)c1)c1cccc(-c2nnn[nH]2)c1
11,150,COCCN1CCn2c1nc(C(=O)NCc1ccc(F)cc1)c(OCc1ccccc1)c2=O
12,109 to 110,CCC(=O)N1CCc2ccccc2C(Oc2ccc(C(F)(F)F)cc2)C1 (stereo not given)
13,113 to 116,Cc1c(NC(=O)C(CSC(=O)c2ccco2)Cc2ccccc2)cccc1C(=O)O (stereo not given)
14,180 to 182,COc1cc(NC(=O)c2c(Cl)cccc2Cl)c2ncccc2c1
15,216 to 220,CCCCc1nn(CC(F)(F)F)c(C(=O)O)c1Cc1ccc2oc(-c3ccccc3-c3nnn[nH]3)c(Br)c2c1
16,82 to 83,CCCCNc1c(C(=O)OCC)cnc2c1cnn2CC
17,234 to 236,COc1ccccc1S(=O)(=O)NC(=O)c1ccc(C(=O)O)nc1
18,96 to 97,C=C1N(C)C(=O)OC12CCN(Cc1ccccc1)CC2
19,92 to 93,CNC(=O)c1cccc(NC(=O)Cc2ccc3c(c2)CC(C)(C)O3)c1

# Further lines, the compound ahead of its results:
row,Compound,melting point [°C]
1,CC1=C(C(=O)OC(C)(C)C)C(c2cccc([N+](=O)[O-])c2)N(C(=O)N(C)C)C(=O)N1 (stereo not given),187 to 188
2,CC(O)CCc1cc(C(C)(C)C)c(O)c(C(C)(C)C)c1 (stereo not given),62 to 67
3,N#Cc1nn(-c2c(Cl)cc(C(F)(F)F)cc2Cl)c(N)c1-c1cccc(Cl)c1,161 to 162
4,CC(C)[C@H](C[C@@H]1OC(C)(C)N(C(=O)OC(C)(C)C)[C@H]1CC1CCCCC1)C(=O)NCCNc1nc(N)n[nH]1,99 to 112
5,O=c1[nH]c2cc(C(F)(F)F)c(-n3ccnc3)cc2n2c(=S)[nH]nc12,> 300
6,O=S1CCNCc2c(Cl)cccc21 (stereo not given),125 to 126
7,COc1cc(CN2CCCC2)ccc1OCC(=O)Nc1ccc(-c2ccc(Cl)cc2)cc1,89 to 91
8,O=C(O)Cn1cnnn1,125 to 127
9,COc1ccc(CN(C)CCCCc2ccc(NC(=O)c3cnc4ccccc4n3)cc2)cc1OC,82 to 85
10,CC(C)C(NC(=O)NCc1ccccc1)C(=O)NC(Cc1ccccc1)C(O)C(Cc1ccccc1)NC(=O)C(NC(=O)NCc1ccccc1)C(C)C (stereo not given),238
11,Cc1c(C#N)c(-c2ccc(C#N)cc2)c(C)n1Cc1ccc(Cl)c(CO)c1,189
12,OC(c1nc(-c2ccc(F)cc2)c(-c2ccc(F)cc2)[nH]1)(C(F)(F)F)C(F)(F)F,153 to 155
13,CCCCCCCCCCCCn1nnc(CCC(=O)Nc2c(OC)cc(OC)cc2OC)n1,86 to 88
14,CCNc1nc(Cl)c(SC)c(Cl)n1,147
15,CNC(=O)Oc1cc(C)c(NC(=O)C(F)(F)Cl)cc1C,187 to 188
16,O=C(Nc1ccc(C(=O)N2Cc3ccccc3Cc3ccccc32)cc1)c1cccc(Cl)c1Cl,225 to 230
17,CC(=O)OCC1CCc2c(C3=C(c4cn(C)c5ccccc45)C(=O)OC3=O)c3ccccc3n2C1 (stereo not given),190 to 193
18,C[C@@H]1N=C(c2ccccc2Cl)c2cc(I)sc2NC1=O,235 to 237
19,Cc1ccnc2c1N=C(N)c1cccnc1N2C1CC1,242 to 244
20,CCc1nc(OC)c(NC(=O)N2CCN(c3cccc(F)c3)CC2)cc1C(=O)NC(C)C(=O)Nc1cc(CO)cc(Nc2c3ccccc3nc3ccccc23)c1 (stereo not given),208 to 210
21,CCn1c(=O)c2[nH]c(/C=C/c3ccc(OC)c(OC)c3OC)nc2n(CC)c1=O,276 to 277

row,Compound,melting point [°C]
1,CCOC(=O)c1c(CCl)nc2cc3c(cc2c1-c1ccc(OC)c(OC)c1)OCCO3,197 to 198
2,Cc1ccc(Cl)cc1-n1c(CF)nc2ccc(N)cc2c1=O,214 to 216
3,CS(=O)(=O)c1ccc(-n2cc(-c3ccc(F)cc3)nc2-c2ccccn2)cc1,88 to 91
4,CC(C)(C)c1nc(-c2nn(-c3ccc(F)cc3F)c3c2C2CCC3C2)n[nH]1 (stereo not given),268 to 269
5,CC(C)(C)c1cc(SCCc2nnc(N)o2)cc(C(C)(C)C)c1O,172 to 174
6,CC(C)[C@H](C[C@H](O)[C@H](C)NC(=O)OC(C)(C)C)C(=O)NCCCn1ccnc1,148 to 150
7,CN1CCC(O)(C2SCCCS2)CC1,115 to 120
8,S=C1NCC(Cn2cncn2)(c2ccc(Cl)cc2Cl)O1 (stereo not given),232 to 235
9,CC(C)CN(CC(C)C)c1ccc(NC(=O)N(C[C@H]2CC[C@H](CN(C(=O)Nc3ccc(N(CC(C)C)CC(C)C)cc3)C3CCCCC3)CC2)C2CCCCC2)cc1,140 to 142
10,Nc1c(-c2ccc(Cl)cc2)sc2ccccc12,152 to 154
11,Nc1ccc2ccc(Oc3ccccc3Br)nc2n1,206
12,C=CCOC(=O)c1cccc(S(=O)(=O)n2c(=O)[nH]c(=O)c3ccc(Cl)cc32)c1,187 to 189
13,CCC(=O)OCOC(=O)C1=C(C)N(COC)C(C)=C(C(=O)OCOC(=O)CC)C1c1cccc([N+](=O)[O-])c1,86 to 87
14,N#CNc1nnc(-c2ccccc2Nc2cccc(C(F)(F)F)c2)o1,> 230
15,CCCCC(=O)c1c(-c2ccc3c(Br)c(O)ccc3c2)oc2ccccc12,171 to 172
16,CCc1nc2c(N)nc3ccccc3c2n1CC(C)(C)OCCS(C)(=O)=O,206 to 209
17,CC(=O)N(C)C(=O)ON=C1SCC(=O)NC1(C)C,218 to 220
18,Cc1cnc(CCc2ccccc2)n2c1c(CCCl)c1ccccc12,144 to 145
19,CCC1NC(=O)C2=C1c1ccc(Cl)cc1C(c1ccccc1Cl)=NC2 (stereo not given),233 to 235
20,COC(=O)C[C@H](O)CC(=O)C=Cc1c(-c2ccc(F)cc2)c(-c2ccccc2)c(C(=O)Nc2ccccc2)n1C(C)C,72 to 74
